Laboratory results from US20060189574A1, “Method of treating high plasma cholesterol levels” (priority 2000, published 2006).

Columns and labels:
fat absorption = settings: humans; cited from earlier work
animal models = settings: cited from earlier work
plasma cholesterol = experiment: Effect of Orlistat/XENICAL and cholestyramine/[…] on plasma cholesterol in volunteers; assay type: in vivo, human; settings: for plasma cholesterol, mean: mean of volunteers
From the text: The effect of a combination of Orlistat/XENICAL® and a bile acid sequestrant cholestyramine/[…]® on plasma cholesterol was examined.
Three hyper-cholesterolemic volunteers, one female, 2 males, […] cholesterol level: They continued on a combination of […], […]

## CCCCCCCCCCC[C@@H](C[C@@H]1OC(=O)[C@H]1CCCCCC)OC(=O)[C@H](CC(C)C)NC=O [Xenical, Orlistat]
Fat absorption
  fat absorption: potent inhibition of fat absorption
Animal models
  body weight: reduce body weight
  fat absorption: inhibit fat absorption
Plasma cholesterol; all three individuals, end of 6 weeks treatment with Xenical b.i.d.
  plasma cholesterol course: reasonably stable
Plasma cholesterol; week 4, Xenical b.i.d.
  plasma cholesterol, mean: 252 mg/100 ml
Plasma cholesterol; week 5, Xenical b.i.d.
  plasma cholesterol, mean: 225 mg/100 ml
Plasma cholesterol; week 6, Xenical b.i.d.
  plasma cholesterol, mean: 247 mg/100 ml
Plasma cholesterol; week 11, Xenical b.i.d. after cessation of Quantalan
  plasma cholesterol, mean: 253 mg/100 ml
Plasma cholesterol; week 13, Xenical b.i.d. after cessation of Quantalan
  plasma cholesterol, mean: 263 mg/100 ml
Plasma cholesterol; volunteer 1, week 4, Xenical b.i.d.
  plasma cholesterol: 252 mg/100 ml
Plasma cholesterol; volunteer 1, week 5, Xenical b.i.d.
  plasma cholesterol: 239 mg/100 ml
Plasma cholesterol; volunteer 1, week 6, Xenical b.i.d.
  plasma cholesterol: 233 mg/100 ml
Plasma cholesterol; volunteer 1, week 11, Xenical b.i.d. after cessation of Quantalan
  plasma cholesterol: 247 mg/100 ml
Plasma cholesterol; volunteer 2, week 4, Xenical b.i.d.
  plasma cholesterol: 236 mg/100 ml
Plasma cholesterol; volunteer 2, week 5, Xenical b.i.d.
  plasma cholesterol: 212 mg/100 ml
Plasma cholesterol; volunteer 2, week 6, Xenical b.i.d.
  plasma cholesterol: 232 mg/100 ml
Plasma cholesterol; volunteer 2, week 11, Xenical b.i.d. after cessation of Quantalan
  plasma cholesterol: 230 mg/100 ml
Plasma cholesterol; volunteer 2, week 13, Xenical b.i.d. after cessation of Quantalan
  plasma cholesterol: 226 mg/100 ml
Plasma cholesterol; volunteer 3, week 4, Xenical b.i.d.
  plasma cholesterol: 269 mg/100 ml
Plasma cholesterol; volunteer 3, week 6, Xenical b.i.d.
  plasma cholesterol: 277 mg/100 ml
Plasma cholesterol; volunteer 3, week 11, Xenical b.i.d. after cessation of Quantalan
  plasma cholesterol: 282 mg/100 ml
Plasma cholesterol; volunteer 3, week 13, Xenical b.i.d. after cessation of Quantalan
  plasma cholesterol: 300 mg/100 ml
